Structures are written as SMILES. Bounds are passed on as bounds.

Data set [1] concerns CYP2B10. Put plainly: In situ hybridization of CYP2B10 in small intestine. The settings on record: for CYP2B10 expression in the small intestine: 3 days treatment; for number of grains per cell, with or without treatment: CAR −/− animals; for number of grains per cell, with or without treatment / number of grains per cell, treated versus untreated: small intestine.
Data set [2] deals with T1, murine CAR (Mus musculus, UniProt O35627).
T1 sequence (O35627 1-358): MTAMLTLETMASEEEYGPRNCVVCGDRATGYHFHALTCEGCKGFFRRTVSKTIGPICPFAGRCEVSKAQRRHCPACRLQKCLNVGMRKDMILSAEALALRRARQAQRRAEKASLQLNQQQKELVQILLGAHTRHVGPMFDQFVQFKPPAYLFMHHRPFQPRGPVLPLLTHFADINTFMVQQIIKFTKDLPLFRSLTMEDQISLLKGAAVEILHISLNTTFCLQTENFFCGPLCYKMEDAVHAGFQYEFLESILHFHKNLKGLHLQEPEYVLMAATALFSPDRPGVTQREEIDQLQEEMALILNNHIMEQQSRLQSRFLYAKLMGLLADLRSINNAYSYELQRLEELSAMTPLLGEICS
To be noted: mice expressing only murine CAR (heterozygous, no transgene), 24 hours.
Description: (§3) Total RNA was prepared from the livers of the individual mice, and CYP2B10 mRNA expression was assessed by Northern blotting.
(§4) Mice heterozygous for the murine CAR gene mutation and lacking the human CAR transgene express only murine CAR. […] Mice homozygous for the murine CAR gene mutation and carrying the human CAR transgene express only human CAR in the liver.

Data set [3] has as its system murine CAR. To be noted: no functional CAR (homozygous mutation, no transgene), 24 hours.
Description: as §3, §4
For data set [4], the system named is hepatocytes. The data set is described as follows: Hepatocyte proliferation (BrdU incorporation). It counts as in vivo, mouse. To be noted: wild-type animals. On the procedure:
FIG. 3B is a set of pictures of PB-treated, TCPOBOP-treated, or control mice that were treated with BrdU for two hours before their liver tissues were harvested.
To determine the proliferation of hepatocytes following PB or TCPOBOP treatment, mice pretreated with corn oil, PB, or TCPOBOP received a single intraperitoneal dose of BrdU/FdU (2 ml/100 g, Amersham). Mice were sacrificed approximately 2 hours after BrdU administration. BrdU incorporation was determined using a mouse anti-BrdU monoclonal antibody (DAKO Corporation) and Vectastain ABC Kit (Vector Laboratories Inc.) (FIG. 3B), using standard procedures.
(Uptake of a labelled nucleoside into DNA is a usual measure of proliferation.)

Data set [5] concerns hepatic GSH. Put plainly: Hepatic GSH content (non-protein thiol). It counts as in vivo, mouse. The settings on record: for hepatic GSH levels versus vehicle CAR (+/+) and pretreated CAR (−/−) animals: pretreated wild-type animals, two hours after APAP; for decrease in hepatic GSH: pretreated wild-type mice, two hours after APAP 250 mg/kg. On the procedure:
(§1) CAR (+/+) or CAR (−/−) animals pretreated with phenobarbital (PB), TCPOBOP (TC), or vehicle alone were administered a 250 mg/kg dose of APAP by intraperitoneal injection (n=5–7 per treatment group) (FIG. 11A). Serum was collected and alanine aminotransferase (ALT) levels were measured after 24 hours. Liver sections from different treatments were examined by histological staining (FIG. 11B). Liver samples from all treated animals were analyzed but only representative histology is presented. […] CAR (+/+) or CAR (−/−) animals were pretreated with PB, TCPOBOP (TC), or vehicle alone for three days (FIG. 11C). […] Liver samples treated as indicated were collected two hours after APAP and GSH levels were measured (n=5–7) (FIG. 11D).
FIG. 15A is a picture of the histological staining of liver sections after two hours of 500 mg/kg APAP treatment. Liver sections from animals injected with 500 mg/kg APAP for 0 or 2 hours were stained with hematoxylin and eosin. Arrows indicate initial stages of necrosis surrounding central veins. The same liver samples were collected and GSH levels were measured at 0 and 2 hours as indicated. FIG. 15B is a graph of these GSH levels.
(§2) For histologic examination of the treated mice, the left lobe of the livers was removed and immediately fixed in 4% formaldehyde-PBS solution, embedded in paraffin, sectioned at 5 μm, and stained with hematoxylin and eosin. Samples were examined under a light microscope. For RNA studies, total RNA was extracted using TRIzol Reagent (Invitrogen Life Technologies, Carlsbad, Calif.) according to the manufacture's instruction. Equivalent amount of RNA from 3–5 mice were pooled and 10 μg of each sample was subjected to northern blot analysis. […] Preparation of probes for CYP2B10 and CYP3A11 were described as previously (Wei et al., Nature 407:920–923, 2000 and Zelko et al., Mol Cell Biol 21:2838–2846, 2001). PCR primers used were: CYP1A2: 5′-[…]-3′ (SEQ ID NO: 19) and 5′-[…]-3′ (SEQ ID NO: 20), CYP2E1: 5′-[…]-3′ (SEQ ID NO: 21) and 5′-[…]-3′ (SEQ ID NO: 22), GSTPi: 5′-[…]-3′ (SEQ ID NO: 23) and 5′-[…]-3′ (SEQ ID NO: 24). Hepatic non-protein thiol was measured as an indication of hepatic GSH content. Mice were sacrificed two hours after intraperitoneal injection with APAP. Livers were removed and immediately homogenized in four volumes of 5% trichloroacetic acid and then centrifuged at 1,600×g for 15 minutes. Supernatant (0.5 ml) was mixed with 1.5 ml 0.1 mM Ellman's reagent [5,5′-dithio-bis(2-nitrobenzoic acid)] (Sigma, St Louis, Mo.) and allowed to stand at room temperature for 15 minutes. Absorbance was read at 412 nm using GSH solutions as quantitative standards.

The subject of data set [6] is wild-type and CAR knockout mice. The data set is described as follows: APAP toxicity after pretreatment with inducers (serum ALT, histology). Format: in vivo, mouse. To be noted: APAP 250 mg/kg; for hepatotoxicity, inducer plus APAP: CAR null mice; for liver histology after pretreatment and APAP: wild-type animals; for ALT levels and hepatic necrosis, inducer plus APAP: wild-type, 24 hours. The method, then:
as §1
The effect of PB and the potent CAR agonist TCPOBOP on APAP toxicity was examined in wild-type and CAR knockout mice. Both strains of mice were treated with inducers or the vehicle control, followed by 250 mg/kg APAP. For these studies, mice were kept in a pathogen-free animal facility under standard 12 hour light/12 hour dark cycle and fed standard rodent chow and water ad libitum. At least five mice between 8 and 10 weeks old were used in each treatment group. For 3-day PB (100 mg/kg) treatment, mice were injected intraperitoneally three times, one injection per day. TCPOBOP (3 mg/kg) and/or APAP were injected intraperitoneally. Phenobarbital and TCPOBOP were suspended or dissolved in corn oil, and APAP was dissolved in basic PBS (pH=11). PB and APAP were purchased from Sigma (St Louis, Mo.); TCPOBOP was a gift from Dr. Stephen Safe.
as §2

Data set [7] has as its system CYP2B10. Put plainly: Northern blot of CYP2B10 mRNA in liver of wild-type and CAR knockout mice.
Description: At least three mice between about 8–10 weeks old were used for each treatment. Mice were pretreated by intraperitoneal injection with corn oil, PB (100 mg/kg, Sigma), or TCBOPOP (3 mg/kg) for the indicated time. For a three day PB treatment, mice were injected intraperitoneally three times with PB, at one injection per day.
Approximately 20 μg of total RNA from individual mouse livers was subjected to Northern blot analysis (FIG. 1C). A mouse CAR cDNA probe was used to reveal the absence of CAR transcripts in the CAR null mice. Probes for CYP2B10 were prepared by RT-PCR with mouse liver total RNA using Superscript One-step RT-PCR System (Life Technologies).
Data set [8] deals with CYP enzyme activity. Put plainly: Zoxazolamine paralysis test. The settings on record: for effect of pretreatment on paralysis: CAR −/− mice; for duration of zoxazolamine-induced paralysis: 3-day pretreatment, zoxazolamine 300 mg/kg i.p.; for animals that died: female CAR −/− mice after zoxazolamine; for effect of pretreatment on duration of paralysis: wild-type animals. The method, then: In these experiments, mice were pretreated for three days with PB or TCPOBOP, after which time they were given a single intraperitoneal injection of zoxazolamine (300 mg/kg). Paralysis time was recorded as the time when the mice were able to right themselves repeatedly.

As for `Clc1cnc(Oc2ccc(Oc3ncc(Cl)cc3Cl)cc2)c(Cl)c1` [TCPOBOP, 1,4-bis[2-(3,5-dichloropyridyloxy)]benzene], the “CYP2B10 expression in the small intestine” value (shortened to “CYP2B10 expression”) in data set [1] (CAR knockout mice) is “not detected”. The “number of grains per cell, with or without treatment” value in data set [1] is “not significantly different”. In data set [1] (wild-type mice), the “CYP2B10 expression” value is given as “induced CYP2B10 expression” and the “number of grains per cell, treated versus untreated” value is reported as “approximately two-fold higher”. The “induction of CYP2B10 mRNA” value in data set [2] is given as “induction of CYP2B10 mRNA”. Moreover, the “induction of CYP2B10 mRNA” value in data set [3] is reported as “no response”. Also, the BrdU-positive hepatocytes result in data set [4] was “presence of BrdU-positive hepatocytes”. In addition, in data set [5], the “hepatic GSH levels versus vehicle CAR (+/+) and pretreated CAR (−/−) animals” value was “significantly different”; the “decrease in hepatic GSH” value is on record as “approximately 50%”. Besides, in data set [6], the “hepatotoxicity, inducer plus APAP” value is given as “no such hepatotoxicity”; the “liver histology after pretreatment and APAP” value was “extensive hepatic centrilobular necrosis”; the “ALT levels and hepatic necrosis, inducer plus APAP” value is “strongly elevated ALT levels and hepatic necrosis”. In addition, in data set [7] (CAR knockout animals), the “induction of expression of CYP2B10 mRNA” value is given as “absent”. For the same compound, the “induction of expression of CYP2B10 mRNA” value in data set [7] (wild-type male or female mice) is “robust induction”. Also, in data set [8], the “effect of pretreatment on paralysis” value is on record as “not affected”, the animals that died result was “two animals from each group” and the “effect of pretreatment on duration of paralysis” value is listed as “significantly decreased the duration of paralysis”. Moreover, in data set [8] (female CAR (+/+) mice), the “duration of zoxazolamine-induced paralysis” value is “not paralyzed”. Also, the “duration of zoxazolamine-induced paralysis” value in data set [8] (female CAR (−/−) mice) is “died”. For the same compound, the “duration of zoxazolamine-induced paralysis” value in data set [8] (male CAR (+/+) mice) is less than 20 min. For the same compound, in data set [8] (male CAR (−/−) mice), the “duration of zoxazolamine-induced paralysis” value was more than 300 min.

Turning to `CCC1(c2ccccc2)C(=O)NC(=O)NC1=O` [PB, phenobarbital], the entries for the “CYP2B10 expression” value in data set [1] (CAR knockout mice) and in data set [1] (wild-type mice) were “not detected” and “induced CYP2B10 expression”, respectively. The “number of grains per cell, with or without treatment” value in data set [1] is “not significantly different”. For the same compound, the “number of grains per cell, treated versus untreated” value in data set [1] (wild-type mice) was “approximately two-fold higher”. Moreover, the “induction of CYP2B10 mRNA” value in data set [2] is given as “induction of CYP2B10 mRNA”; in data set [3], “no response”. Besides, the BrdU-positive hepatocytes result in data set [4] was “presence of BrdU-positive hepatocytes”. Besides, in data set [5], the “hepatic GSH levels versus vehicle CAR (+/+) and pretreated CAR (−/−) animals” value is recorded as “significantly different”. The “decrease in hepatic GSH” value in data set [5] is “approximately 50%”. Further, the “hepatotoxicity, inducer plus APAP” value in data set [6] is recorded as “no such hepatotoxicity”. Further, the “liver histology after pretreatment and APAP” value in data set [6] is “extensive hepatic centrilobular necrosis”. Further, the “ALT levels and hepatic necrosis, inducer plus APAP” value in data set [6] was “strongly elevated ALT levels and hepatic necrosis”. Besides, the entries for the “induction of expression of CYP2B10 mRNA” value in data set [7] (CAR knockout animals) and in data set [7] (wild-type male or female mice) were “absent” and “robust induction”, respectively. The “effect of pretreatment on paralysis” value in data set [8] is listed as “not affected”. The “duration of zoxazolamine-induced paralysis” value in data set [8] (female CAR (+/+) mice) is “not paralyzed”; in data set [8] (female CAR (−/−) mice), “died”; in data set [8] (male CAR (+/+) mice), less than 20 min; in data set [8] (male CAR (−/−) mice), more than 300 min. Besides, the animals that died result in data set [8] is reported as “two animals from each group”. Besides, the “effect of pretreatment on duration of paralysis” value in data set [8] is on record as “significantly decreased the duration of paralysis”.
